Measured values taken from US6825230B2, “Spiro and dispiro 1,2,4-trixolane antimalarials” (Medicines for Malaria Venture MMV, priority 2002, dated 2004).
≈ marks a conversion by molar mass, not a printed value. Read-outs that look alike come from different tables or passages of the source.

Tests used:
[1] = test system: Schistosoma mansoni 21-day-old schistosomules; assay: Effect on 21-day-old schistosomules in infected mice; format: in vivo; details: for % reduction of schistosomule growth at day 21 after per os application of 200 mg/kg, FWR (%): female worm reduction rate
Procedure: Mice were infected with 100 Schistosoma mansoni cercariae on day 21 post-treatment. Each group was treated per os with trioxolanes at a single dose of 200 mg/kg. […] All groups were killed 4 weeks after treatment and the liver and intestine were removed and separated. The liver and intestine were compressed and alive male and female worms could be seen and counted. The effect of the compounds was evaluated by mean total and female worm burden.

[2] = test system: ANKA strain of P. berghei; assay: Single dose STI in vivo screen in infected mice; set-up: species or system Plasmodium berghei; details: for Survival (days) 10 mg/kg po: single 10 mg/kg po in 3% ethanol and 7% Tween 80; for Survival (days) 10 mg/kg po / Survival (days) 10 mg/kg SSV po / Survival (days) 10 mg/kg sc: untreated 6-7 days; for Activity (%) 10 mg/kg po: single 10 mg/kg po in 3% ethanol and 7% Tween 80 on day 1 post-infection; for Survival (days) 10 mg/kg SSV po: single 10 mg/kg po in SSV; for Activity (%) 10 mg/kg SSV po: single 10 mg/kg po in standard suspending vehicle (SSV) on day 1 post-infection; for Survival (days) 10 mg/kg sc: single 10 mg/kg sc in 3% ethanol and 7% Tween 80; for Activity (%) 10 mg/kg sc: single 10 mg/kg sc in 3% ethanol and 7% Tween 80 on day 1 post-infection
[3] = test system: chloroquine-resistant K1 strain of P. falciparum; assay: In vitro antimalarial semiautomated microdilution assay ([3H]-hypoxanthine incorporation), K1 strain; format: cell-based, Plasmodium falciparum; details: chloroquine-resistant K1 strain, 72 h incubation; for IC50: Plasmodium falciparum, read-out: IC50 (ng/ml) K1
Method in brief: (§1)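 Asynchronous stock-culture parasites (intraerythrocytic forms), serial compound dilutions; readout [3H]-hypoxanthine uptake; IC50 via Logit regression.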

[4] = test system: chloroquine-sensitive NF54 strain of P. falciparum; assay: In vitro antimalarial semiautomated microdilution assay ([3H]-hypoxanthine incorporation), NF54 strain; format: cell-based, Plasmodium falciparum; details: for IC50: Plasmodium falciparum
Method in brief: as §1

P. berghei ANKA strain = assay: Divided 3x3 mg/kg and 3x1 mg/kg po doses in infected mice; format: in vivo, Plasmodium berghei; details: 3 mg/kg po (SSV) on days 1, 2, 3 post-infection
Procedure: Moro NMRI male mice (Fu Albino specific pathogen free) weighing 18±2 g were infected intravenously (i.v.) with 2×10^7 P. berghei ANKA strain-infected erythrocytes from donor mice on day 0 of the experiment. From donor mice with circa 30% parasitemia, heparinized blood was taken and diluted in physiological saline to 10^8 parasitized erythrocytes per ml. An aliquot (0.2 ml) of this suspension was injected i.v. into experimental and control groups of mice. […] Throughout the experiments, mice were kept in groups of three or five animals in Makrolon type II cages in an air-conditioned animal room at 22 to 23° C.
They were administered per os (p.o.) in a total volume of 0.01 ml per gram of mouse. The activity of the compound was determined by a variety of methods outlined in subsequent sections. Survival time was also recorded, and survival to day 30 post-infection was considered to be a cure.
The second experiment consists of administration of divided 3×3 mg/kg and 3×1 mg/kg po doses administered on days 1, 2, and 3 post-infection. On day 4 post-infection, blood smears of all animals were prepared and stained with Giemsa. […] Compounds were administered orally in the SSV vehicle.

[5] = single 200 mg/kg per os, 21-day-old schistosomules
[6] = single 200 mg/kg per os, 21-day-old schistosomules, total worm reduction rate
[7] = percent reduction in parasitemia on day 3
[8] = chloroquine-sensitive NF54 strain, 72 h incubation, read-out: IC50 (ng/ml) NF54
[9] = percent reduction in parasitemia on day 3, 10 mg/kg
[10] = percent reduction in parasitemia on day 3, hydrochloride, 10 mg/kg

Row | SMILES | % reduction of schistosomule growth at day 21 after per os application of 200 mg/kg, FWR (%) [1, 5] [%] | % reduction of schistosomule growth at day 21 after per os application of 200 mg/kg, TWR (%) [1, 6] [%] | Survival (days) 10 mg/kg po [2] [days] | Activity (%) 10 mg/kg po [2, 7] [%] | Survival (days) 10 mg/kg SSV po [2] [days] | Activity (%) 10 mg/kg SSV po [2, 7] [%] | Survival (days) 10 mg/kg sc [2] [days] | Activity (%) 10 mg/kg sc [2, 7] [%] | IC50 [3] [ng/mL] | % reduction of schistosomule growth at day 21 after per os application of 200 mg/kg, TWR (%) ([1]; po, 200 mg/kg, 504 h) | IC50 [4, 8] [ng/mL] | also measured
1 | CS(=O)(=O)N1CCC2(CC1)OOC1(O2)C2CC3CC(C2)CC1C3 (stereo not shown) [OZ56] | 66 | 69 |  |  |  |  |  |  |  |  |  | 
2 | CC1(O)CCC2(CC1)OOC1(O2)C2CC3CC(C2)CC1C3 (stereo not shown) [OZ90] | 79 | 81 |  |  |  |  |  |  |  |  |  | 
3 | CC(C)(C)CC(=O)N1CCC2(CC1)OOC1(O2)C2CC3CC(C2)CC1C3 (stereo not shown) [OZ111, Adamantane-2-spiro-3′-8′-(3′,3′-dimethylbutanoyl)-1′,2′,4′-trioxa-8′-azaspiro[4.5]decane] | 68 | 71 | 7.7 | 98 | 6.3 | 79 | 8.3 | 99.94 |  |  |  | 
4 | OC[C@H]1CC[C@]2(CC1)OOC1(O2)C2CC3CC(C2)CC1C3 (stereo partly shown) [OZ119] | 87 |  | 7.7 | 99.29 | 8.0 | 99.15 | 8.3 | 99.66 | 0.83 (≈ 2.82 nM) | 88 | 0.2 (≈ 0.679 nM) | 
5 | c1cn(C[C@H]2CC[C@]3(CC2)OOC2(O3)C3CC4CC(C3)CC2C4)cn1 (stereo partly shown) [OZ145] | 83 |  |  |  |  |  |  |  | 0.5 (≈ 1.45 nM) | 80 | 0.76 (≈ 2.21 nM) | Survival (days) 10 mg/kg po ([2]; 10 mg/kg): 8.3 days; Activity (%) 10 mg/kg po [2, 9]: 99.82%; Survival (days) 10 mg/kg SSV po ([2]; 10 mg/kg): 10.7 days; Activity (%) 10 mg/kg SSV po [2, 9]: 99.21%; Survival (days) 10 mg/kg sc ([2]; 10 mg/kg): 10.7 days; Activity (%) 10 mg/kg sc [2, 9]: 99.87%
6 | O=[N+]([O-])c1ccc(N2CCC3(CC2)OOC2(O3)C3CC4CC(C3)CC2C4)cc1 (stereo not shown) [OZ151, Adamantane-2-spiro-3′-8′-(4′-nitrophenyl)-1′,2′,4′-trioxa-8′-azaspiro[4.5]decane] | 19 |  | 7.3 | 71 | 7.3 | 71 | 11.0 | 99.63 | 3.8 (≈ 9.83 nM) | 19 | 4 (≈ 10.4 nM) | 
7 | OC12CC3CC(C1)C1(OOC4(CCC5(CC4)OCCO5)O1)C(C3)C2 (stereo not shown) [OZ152, 5-Hydroxyadamantane-2-spiro-3′-1′,2′,4′,9′,12′-pentaoxadispiro[4.2.4.2]tetradecane] | 11 | 19 | 6.3 |  |  |  |  |  |  |  |  | IC50 (ng/ml) K1 [3]: 3.2 ng/mL (≈ 9.46 nM); IC50 (ng/ml) NF54 ([4]; chloroquine-sensitive NF54 strain, 72 h incubation): 7.2 ng/mL (≈ 21.3 nM); Activity (%) 10 mg/kg po [2, 9]: 0%; Survival (days) 10 mg/kg SSV po ([2]; 10 mg/kg): 6.7 days; Activity (%) 10 mg/kg SSV po [2, 9]: 12%; Survival (days) 10 mg/kg sc ([2]; 10 mg/kg): 6.7 days; Activity (%) 10 mg/kg sc [2, 9]: 22%
8 | NC[C@H]1CC[C@]2(CC1)OOC1(O2)C2CC3CC(C2)CC1C3 (stereo partly shown) [OZ163] | 80 |  |  |  |  |  |  |  |  |  |  | IC50 ([4]; NF54, 72 h, read-out: IC50 (ng/ml) NF54, chloroquine-sensitive NF54 strain, 72 h incubation): 0.2 ng/mL (≈ 0.682 nM); Survival (days) 10 mg/kg po ([2]; hydrochloride, 10 mg/kg): 8.0 days; Activity (%) 10 mg/kg po [2, 10]: 99.90%; Survival (days) 10 mg/kg SSV po ([2]; hydrochloride, 10 mg/kg): 9.0 days; Activity (%) 10 mg/kg SSV po [2, 10]: 99.94%; Survival (days) 10 mg/kg sc ([2]; hydrochloride, 10 mg/kg): 9.7 days; Activity (%) 10 mg/kg sc [2, 10]: 100%
9 | O=C(NC[C@H]1CC[C@]2(CC1)OO[C@]1(O2)C2CC3CC(C2)CC1C3)N1CCNCC1 [OZ329] |  |  |  |  | 11.2 | 99.97 |  |  | 0.43 (≈ 1.06 nM) |  | 0.68 (≈ 1.68 nM) | Survival (days) 3 mg/kg SSV po ([2]; single 3 mg/kg po in SSV): 9.2 days; Activity (%) 3 mg/kg SSV po ([2]; single 3 mg/kg po in SSV, percent reduction in parasitemia on day 3): 99.50%; Cured infected mice at the 3×3 mg/kg dose (P. berghei ANKA strain): 2/5
10 | NC1CCN(C(=O)C[C@H]2CC[C@]3(CC2)OO[C@]2(O3)C3CC4CC(C3)CC2C4)CC1 [OZ339] |  |  |  |  | 10.2 |  |  |  |  |  |  | Survival (days) 3 mg/kg SSV po ([2]; single 3 mg/kg po in SSV): 9.2 days; Cured infected mice at the 3×3 mg/kg dose (P. berghei ANKA strain): 3/5
